Structures are written as SMILES. ≈ marks a conversion by molar mass, not a printed value. Calls of active or inactive are those of the source. Bounds are passed on as bounds.

Usually MBC stands for the smallest concentration meeting the test's criterion for killing. The term MIC denotes the lowest concentration found to suppress growth.

Tested on in the first series: not listed separately
The series can be described thus: Cytotoxicity against human RBC up to 500 ug/ml. The class given is cell-based. Particulars: erythrocyte.
Turning to `CC(C)(C)c1ccc(CNCC2CCCC(CNCc3ccc(C(C)(C)C)cc3)C2)cc1.Cl.Cl` (centres undefined), the Activity result is recorded as “Non-toxic”.

`CCCCc1ccc(CNCC2CCCC(CNCc3ccc(CCCC)cc3)C2)cc1.Cl.Cl` (centres undefined): the Activity entry is “Non-toxic”.

For a further series, the system named is Mycobacterium tuberculosis. Briefly: Bactericidal activity against Mycobacterium tuberculosis H37Rv assessed as reduction in CFU at 10 times MIC by serial dilution-based time kill assay relative to control. The class given is functional, organism-based. Particulars: TDE = time-dependent effect.
With `CC(C)(C)c1ccc(CNCC2CCCC(CNCc3ccc(C(C)(C)C)cc3)C2)cc1.Cl.Cl` (centres undefined), the Activity entry is “tde”.

A further series concerns Mycobacterium tuberculosis. The series can be described thus: Bactericidal activity against Mycobacterium tuberculosis H37Rv assessed as reduction in CFU over 4 days by serial dilution-based time kill assay relative to control.
Conditions: not given
The class given is functional.
In the case of `CC(C)(C)c1ccc(CNCC2CCCC(CNCc3ccc(C(C)(C)C)cc3)C2)cc1.Cl.Cl` (centres undefined), the Activity entry is “Dose-dependent effect”.

Still in this series, the particulars now being: 96 h.
Consider `CC(C)(C)c1ccc(CNCC2CCCC(CNCc3ccc(C(C)(C)C)cc3)C2)cc1.Cl.Cl` (centres undefined), for which the MBC was found to be 4.5 µM.

The subject of the next series is Mycobacterium tuberculosis. Briefly: Bactericidal activity against Mycobacterium tuberculosis H37Rv assessed as reduction in CFU at 10 times MIC after 4 days by serial dilution-based time kill assay relative to control. The class given is functional, organism-based.
Conditions: not given
As for `CC(C)(C)c1ccc(CNCC2CCCC(CNCc3ccc(C(C)(C)C)cc3)C2)cc1.Cl.Cl` (centres undefined), the outcome was Active.

With `CCCCc1ccc(CNCC2CCCC(CNCc3ccc(CCCC)cc3)C2)cc1.Cl.Cl` (centres undefined), the outcome was Active.

For the next series, the system named is Mycobacterium tuberculosis. Briefly: Bactericidal activity against Mycobacterium tuberculosis H37Rv assessed as log reduction in CFU at 10 times MIC over 2 days by serial dilution-based time kill assay relative to control. The class given is functional.
Conditions: not given
As to `CC(C)(C)c1ccc(CNCC2CCCC(CNCc3ccc(C(C)(C)C)cc3)C2)cc1.Cl.Cl` (centres undefined), the FC came to 5.

Take `CCCCc1ccc(CNCC2CCCC(CNCc3ccc(CCCC)cc3)C2)cc1.Cl.Cl` (centres undefined): the FC turned out to be 5.

For a further series, the system named is Mycobacterium tuberculosis. Briefly: Antitubercular activity against Mycobacterium tuberculosis H37Rv at 20 uM after 5 days by fluorescence assay.
Conditions: not given
The class given is functional, organism-based.
Regarding `Fc1cccc(CNCC2CCCC(CNCc3cccc(F)c3)C2)c1` (centres undefined), the inhibition entry was “inactive”.

Regarding `FC(F)(F)c1ccccc1CNCC1CCCC(CNCc2ccccc2C(F)(F)F)C1` (centres undefined), the inhibition result is “inactive”.

Consider `Fc1ccccc1CNCC1CCCC(CNCc2ccccc2F)C1` (centres undefined), for which the inhibition entry is “inactive”.

As for `O=[N+]([O-])c1cccc(CNCC2CCCC(CNCc3cccc([N+](=O)[O-])c3)C2)c1` (centres undefined), the inhibition entry was “inactive”.

With `COc1ccc(CNCC2CCCC(CNCc3ccc(OC)cc3)C2)cc1` (centres undefined), the inhibition result was “inactive”.

With `c1ccc(CNCC2CCCC(CNCc3ccccc3)C2)cc1` (centres undefined), the inhibition result was “inactive”.

`O=[N+]([O-])c1ccc(CNCC2CCCC(CNCc3ccc([N+](=O)[O-])cc3)C2)cc1` (centres undefined): the inhibition result is “inactive”.

On to `Clc1ccccc1CNCC1CCCC(CNCc2ccccc2Cl)C1` (centres undefined), for which the inhibition entry is “inactive”.

In the case of `Fc1ccc(CNCC2CCCC(CNCc3ccc(F)cc3)C2)cc1` (centres undefined), the inhibition result was “inactive”.

In the case of `Fc1cc(F)cc(CNCC2CCCC(CNCc3cc(F)cc(F)c3)C2)c1` (centres undefined), the inhibition result was “inactive”.

For the compound `O=[N+]([O-])c1ccccc1CNCC1CCCC(CNCc2ccccc2[N+](=O)[O-])C1` (centres undefined), the inhibition result was “inactive”.

Take `CN1CCN(c2ccc(CNCC3CCCC(CNCc4ccc(N5CCN(C)CC5)cc4)C3)cc2)CC1` (centres undefined): the inhibition entry was “inactive”.

On to `Clc1cccc(Cl)c1CNCC1CCCC(CNCc2c(Cl)cccc2Cl)C1` (centres undefined), for which the inhibition entry was “inactive”.

For `Cc1ccccc1CNCC1CCCC(CNCc2ccccc2C)C1` (centres undefined), the inhibition result was “inactive”.

As to `Fc1cccc(F)c1CNCC1CCCC(CNCc2c(F)cccc2F)C1` (centres undefined), the inhibition entry is “inactive”.

Another series has as its system Mycobacterium tuberculosis. The series can be described thus: Antitubercular activity against Mycobacterium tuberculosis H37Rv after 5 days by fluorescence assay. The class given is functional. The settings on record: 120 h.
`Clc1cccc(CNCC2CCCC(CNCc3cccc(Cl)c3)C2)c1` (centres undefined) returned an MIC of over 20 µM.

The compound `Brc1ccccc1CNCC1CCCC(CNCc2ccccc2Br)C1` (centres undefined) had an MIC of over 20 µM.

`CC(C)(C)c1ccc(CNCC2CCCC(CNCc3ccc(C(C)(C)C)cc3)C2)cc1.Cl.Cl` (centres undefined): the MIC was determined as 1.1 µM.

Compound `Clc1ccc(CNCC2CCCC(CNCc3ccc(Cl)cc3Cl)C2)c(Cl)c1` (centres undefined) displayed an MIC of 20 µM (≈ 9.21 µg/mL).

Turning to `CCCCCc1ccc(CNCC2CCCC(CNCc3ccc(CCCCC)cc3)C2)cc1` (centres undefined), the MIC is 6.7 µM (≈ 3.1 µg/mL).

Compound `CCCCCCCCc1ccc(CNCC2CCCC(CNCc3ccc(CCCCCCCC)cc3)C2)cc1` (centres undefined) returned an MIC of 3.2 µM (≈ 1.75 µg/mL).

On to `Cc1cc(C)cc(CNCC2CCCC(CNCc3cc(C)cc(C)c3)C2)c1` (centres undefined), for which it took 17.5 µM (≈ 6.63 µg/mL) to inhibit growth (MIC).

Consider `c1ccc(N2CCN(c3ccc(CNCC4CCCC(CNCc5ccc(N6CCN(c7ccccc7)CC6)cc5)C4)cc3)CC2)cc1` (centres undefined), for which inhibition of growth (MIC) required 4.4 µM (≈ 2.83 µg/mL).

`CC[C@@H](CO)NCCN[C@@H](CC)CO` [ETHAMBUTOL]: inhibition of growth (MIC) required 2 µM (≈ 0.409 µg/mL).

Consider `CCCCc1ccc(CNCC2CCCC(CNCc3ccc(CCCC)cc3)C2)cc1.Cl.Cl` (centres undefined), for which the MIC was 2.4 µM.

`CCCCCCCc1ccccc1CNCC1CCCC(CNCc2ccccc2CCCCCCC)C1` (centres undefined) displayed an MIC of 20 µM (≈ 10.4 µg/mL).

On to `CCCCCCc1ccc(CNCC2CCCC(CNCc3ccc(CCCCCC)cc3)C2)cc1` (centres undefined), for which it took 5.6 µM (≈ 2.75 µg/mL) to inhibit growth (MIC).

`CCc1ccc(CNCC2CCCC(CNCc3ccc(CC)cc3)C2)cc1` (centres undefined) came in with an MIC of 15.7 µM (≈ 5.94 µg/mL).

Consider `CC(C)c1ccc(CNCC2CCCC(CNCc3ccc(C(C)C)cc3)C2)cc1` (centres undefined), for which the lowest concentration to inhibit growth (MIC) was 4.4 µM (≈ 1.79 µg/mL).

With `Cc1ccc(C)c(CNCC2CCCC(CNCc3cc(C)ccc3C)C2)c1` (centres undefined), the MIC is over 20 µM.

`c1cc(N2CCCC2)ccc1CNCC1CCCC(CNCc2ccc(N3CCCC3)cc2)C1` (centres undefined) returned an MIC of 9.5 µM (≈ 4.38 µg/mL).

Regarding `Cc1ccc(CNCC2CCCC(CNCc3ccc(C)cc3C)C2)c(C)c1` (centres undefined), the MIC is over 20 µM.

Take `Brc1ccc(CNCC2CCCC(CNCc3ccc(Br)cc3)C2)cc1` (centres undefined): inhibition of growth (MIC) required 12.2 µM (≈ 5.86 µg/mL).

As to `CCCCCc1ccccc1CNCC1CCCC(CNCc2ccccc2CCCCC)C1` (centres undefined), it took 8.7 µM (≈ 4.03 µg/mL) to inhibit growth (MIC).

The compound `Cc1ccc(CNCC2CCCC(CNCc3ccc(C)cc3)C2)cc1` (centres undefined) returned an MIC of over 20 µM.

`CCCCCCCCc1ccccc1CNCC1CCCC(CNCc2ccccc2CCCCCCCC)C1` (centres undefined): inhibition of growth (MIC) required 16.1 µM (≈ 8.81 µg/mL).

The compound `Clc1ccc(CNCC2CCCC(CNCc3ccc(Cl)cc3)C2)cc1` (centres undefined) came in with an MIC of 17.5 µM (≈ 6.85 µg/mL).

In turn, `Cc1ccc(CNCC2CCCC(CNCc3ccc(C)c(C)c3)C2)cc1C` (centres undefined) gave an MIC of over 20 µM.

Turning to `Cc1cccc(CNCC2CCCC(CNCc3cccc(C)c3)C2)c1` (centres undefined), the MIC is over 20 µM.

The compound `Brc1cccc(CNCC2CCCC(CNCc3cccc(Br)c3)C2)c1` (centres undefined) yielded an MIC of 12.7 µM (≈ 6.1 µg/mL).

In the case of `CCCc1ccc(CNCC2CCCC(CNCc3ccc(CCC)cc3)C2)cc1` (centres undefined), the MIC stood at 4.2 µM (≈ 1.71 µg/mL).

`FC(F)(F)c1ccc(CNCC2CCCC(CNCc3ccc(C(F)(F)F)cc3)C2)cc1` (centres undefined) gave an MIC of 12.5 µM (≈ 5.73 µg/mL).

As to `c1cc(N2CCCCC2)ccc1CNCC1CCCC(CNCc2ccc(N3CCCCC3)cc2)C1` (centres undefined), the MIC was 13.8 µM (≈ 6.74 µg/mL).

Regarding `CCCCCCCc1ccc(CNCC2CCCC(CNCc3ccc(CCCCCCC)cc3)C2)cc1` (centres undefined), it took 3.1 µM (≈ 1.61 µg/mL) to inhibit growth (MIC).

Consider `CCCCCCc1ccccc1CNCC1CCCC(CNCc2ccccc2CCCCCC)C1` (centres undefined), for which the minimal inhibitory concentration (MIC) was 8.8 µM (≈ 4.32 µg/mL).

These data come from ChEMBL document CHEMBL2331510, “Antimycobacterial activity evaluation, time-kill kinetic and 3D-QSAR study of C-(3-aminomethyl-cyclohexyl)-methylamine derivatives” (Bioorg Med Chem Lett, 2013).
